Laboratory results reported in patent publication US8101774B2, “Ester derivatives and medicinal use thereof” (Japan Tobacco Inc., priority 2004, dated 2012).

Molecular target: T1, Microsomal triglyceride transfer protein (MTP) from human small intestine microsome (Homo sapiens, UniProt P55157)
T1 construct: Human small intestine microsome was dialyzed against 10 mM phosphate buffer; tissue Tissue Transforming Technologies, Inc; host or cells: human small intestine microsome
Experiment: Inhibition test of interliposomal triglyceride (TG) transfer activity by MTP
Type: biochemical
Settings: purified MTP from human small intestine microsome, 37° C., 1.5 hours
Procedure: Microsomal triglyceride transfer protein (MTP) from human small intestine microsome (manufactured by Tissue Transforming Technologies, Inc.) was purified in such a way described below. Human small intestine microsome was dialyzed against 10 mM phosphate buffer (300 mL, pH 6.8) twice for about 2 hours and once for further not less than 12 hours, at about 4° C. After dialysis, the mixture was centrifuged at 4° C. and 15,000×g for 5 minutes and then the supernatant was recovered. The previously recovered supernatant was purified by column chromatography on diethylaminoethyl (DEAE) Sepharose using FPLC (Fast Performance Liquid Chromatography) system, and the purified MTP was used for the test as described below.
Small unilamellar-vesicle (SUV) liposome (hereinafter described as donor, containing 0.25% (mol/mol) triolein and 5% (mol/mol) cardiolipin) constituted by triolein labeled with ^14C and non-labeled SUV liposome (hereinafter described as acceptor, containing […] triolein) were prepared in such a way described below.
Firstly, in order to prepare the donor, there were volatilized under a stream of nitrogen gas a phosphatidylcholine solution containing phosphatidylcholine labeled with ^3H, a cardiolipin solution, and a triolein solution containing triolein labeled with ^14C (each solution had been already dissolved in an appropriate organic solvent), or in order to prepare the acceptor, there were volatilized under nitrogen flow a phosphatidylcholine solution containing phosphatidylcholine labeled with ^3H and a cardiolipin solution (each solution had been already dissolved in an appropriate organic solvent). An appropriate amount of a reaction buffer (15 mM Tris-HCl buffer containing 1 mM EDTA.Na2, 40 mM NaCl, and 0.5% (w/v) bovine serum albumin, pH 7.4) was added thereto to be emulsified. The emulsions were treated with ultrasonication under ice-cooling and centrifuged at 4° C. and 159,000×g for 2 hours. Each of the resulting supernatant was used for donor or acceptor.
Each radioactivity in the acceptor and the donor was measured by liquid scintillation counter, and a mixed solution of the acceptor and the donor was prepared with a reaction buffer so as to be a donor-derived radioactivity of 16,000 dpm/400 μL and a acceptor-derived radioactivity of 4,000 dpm/[…]. 400 μL of the mixed solution of the donor and the acceptor, 45 μL of the reaction buffer, 50 μL of MTP (20 μg/mL), and 5 μL of a sample dissolved in DMSO (dimethyl sulfoxide) or 5 μL of DMSO was mixed (total amount: 500 μL). The mixture was incubated at 37° C. for 1.5 hours. After completion of the incubation, 1.25 mL of a suspension of DEAE cellulose (66.7% (v/v)) in 15 mM Tris-HCl buffer (pH 7.4) containing 1 mM EDTA.Na2 was added to the above solution. The mixture was centrifuged to separate the donor (adsorbed on the DEAE cellulose to precipitate) and the acceptor (the supernatant). The radioactivity in the acceptor was measured by liquid scintillation counter. The value obtained by subtracting the radioactivity in a blank group from the radioactivity in the acceptor of a DMSO group was determined as MTP-mediated TG transfer activity, and it was compared with the value obtained by subtracting the radioactivity in the blank group from the radioactivity in a sample group. Here, the blank was prepared by adding 10 mM phosphate buffer (pH 6.8) containing 250 mM NaCl in place of MTP. Inhibition rate (%) was calculated from values obtained according to the following equation. Inhibition rate(%)=(1 minus((radioactivity of sample group minus radioactivity of blank group)/(radioactivity of DMSO group minus radioactivity of blank group)))×100.
50% Inhibition rate (IC50) was determined on the basis of the above equation.

T1 sequence (P55157 19-894): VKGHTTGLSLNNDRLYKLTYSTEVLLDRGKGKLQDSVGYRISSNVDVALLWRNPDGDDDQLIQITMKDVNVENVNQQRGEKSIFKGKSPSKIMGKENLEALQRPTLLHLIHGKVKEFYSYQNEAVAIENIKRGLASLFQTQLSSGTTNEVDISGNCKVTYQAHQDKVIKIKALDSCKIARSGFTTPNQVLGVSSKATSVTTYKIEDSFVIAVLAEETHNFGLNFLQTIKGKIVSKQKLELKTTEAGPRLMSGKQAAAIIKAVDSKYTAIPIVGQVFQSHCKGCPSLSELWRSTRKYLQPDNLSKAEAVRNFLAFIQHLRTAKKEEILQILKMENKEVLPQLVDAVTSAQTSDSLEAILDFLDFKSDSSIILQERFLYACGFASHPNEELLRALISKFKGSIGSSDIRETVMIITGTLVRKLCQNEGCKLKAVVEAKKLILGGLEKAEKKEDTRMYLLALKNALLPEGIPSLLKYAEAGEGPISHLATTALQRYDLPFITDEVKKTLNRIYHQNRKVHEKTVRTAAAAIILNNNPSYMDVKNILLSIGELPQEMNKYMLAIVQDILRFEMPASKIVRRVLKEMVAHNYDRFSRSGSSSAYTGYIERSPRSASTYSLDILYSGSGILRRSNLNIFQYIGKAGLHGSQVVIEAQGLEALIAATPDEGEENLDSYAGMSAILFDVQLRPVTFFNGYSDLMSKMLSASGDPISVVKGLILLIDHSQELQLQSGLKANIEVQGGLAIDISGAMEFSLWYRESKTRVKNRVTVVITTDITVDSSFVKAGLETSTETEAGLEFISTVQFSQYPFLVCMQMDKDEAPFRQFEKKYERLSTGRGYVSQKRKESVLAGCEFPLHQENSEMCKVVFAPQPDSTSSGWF
T1 sequence (P07237 18-508 partner): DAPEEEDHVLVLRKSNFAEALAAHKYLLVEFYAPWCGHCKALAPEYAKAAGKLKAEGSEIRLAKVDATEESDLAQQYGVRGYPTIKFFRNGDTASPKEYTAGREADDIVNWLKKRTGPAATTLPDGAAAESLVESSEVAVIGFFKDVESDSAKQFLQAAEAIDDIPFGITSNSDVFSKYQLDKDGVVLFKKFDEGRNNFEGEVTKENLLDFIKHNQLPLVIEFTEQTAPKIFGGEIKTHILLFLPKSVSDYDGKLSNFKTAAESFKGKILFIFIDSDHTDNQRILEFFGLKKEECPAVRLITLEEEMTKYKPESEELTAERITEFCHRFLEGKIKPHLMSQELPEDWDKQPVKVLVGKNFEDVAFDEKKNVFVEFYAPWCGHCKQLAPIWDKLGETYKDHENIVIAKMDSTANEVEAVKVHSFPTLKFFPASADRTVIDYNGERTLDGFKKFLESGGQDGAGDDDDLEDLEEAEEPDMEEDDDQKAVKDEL

CN(C)C(=O)c1cc(CCCC(=O)Oc2ccc(C(=O)OC3CCCc4ccccc43)cc2)ccc1NC(=O)c1ccccc1-c1ccc(C(F)(F)F)cc1 (centres unmarked) [Compound 1-108, 4-[4-(3-dimethylcarbamoyl-4-{(4′-trifluoromethylbiphenyl-2-carbonyl)amino}phenyl)butyryloxy]benzoic acid 1,2,3,4-tetrahydronaphthalen-1-yl ester]
IC50: < 10 nM

COC(=O)c1cc(C)c(OC(=O)CCCc2ccc(NC(=O)c3ccc(C)nc3-c3ccc(C(F)(F)F)cc3)c(C(=O)N(C)C)c2)c(OC)c1 [Compound 1-46, 4-[4-(3-dimethylcarbamoyl-4-{[6-methyl-2-(4-trifluoromethylphenyl)pyridine-3-carbonyl]amino}phenyl)butyryloxy]-3-methoxy-5-methylbenzoic acid methyl ester]
IC50: < 10 nM

COC(=O)c1ccc(OC(=O)CCCc2ccc(NC(=O)c3cccnc3-c3ccc(C(F)(F)F)cc3)c(C(=O)N(C)C)c2)cc1 [Compound 1-28, 4-[4-(3-dimethylcarbamoyl-4-{[2-(4-trifluoromethylphenyl)pyridine-3-carbonyl]amino}phenyl)butyryloxy]benzoic acid methyl ester]
IC50: < 10 nM

CCOc1cc(C(=O)OC)cc(OC)c1OC(=O)CCCc1ccc(NC(=O)c2ccc(C)nc2-c2ccc(C(F)(F)F)cc2)c(C(=O)N(C)C)c1 [Compound 1-49, 4-[4-(3-dimethylcarbamoyl-4-{[6-methyl-2-(4-trifluoromethylphenyl)pyridine-3-carbonyl]amino}phenyl)butyryloxy]-3-ethoxy-5-methoxybenzoic acid methyl ester]
IC50: < 10 nM

CN(C)C(=O)Cn1nnc(-c2ccc(OC(=O)CCCc3ccc(NC(=O)c4ccccc4-c4ccc(C(F)(F)F)cc4)c(C(=O)N(C)C)c3)cc2)n1 [Compound 1-105, 4-(3-dimethylcarbamoyl-4-{(4′-trifluoromethylbiphenyl-2-carbonyl)amino}phenyl)butyric acid 4-(2-dimethylcarbamoylmethyl-2H-tetrazol-5-yl)phenyl ester]
IC50: < 10 nM

COC(=O)c1cc(Cl)c(OC(=O)CCCc2ccc(NC(=O)c3ccc(C)nc3-c3ccc(C(F)(F)F)cc3)c(C(=O)N(C)C)c2)c(OC)c1 [Compound 1-36, 3-chloro-4-[4-(3-dimethylcarbamoyl-4-{[6-methyl-2-(4-trifluoromethylphenyl)pyridine-3-carbonyl]amino}phenyl)butyryloxy]-5-methoxybenzoic acid methyl ester]
IC50: < 10 nM

CCc1cc(C(=O)OC)cc(F)c1OC(=O)CCCc1ccc(NC(=O)c2ccc(C)nc2-c2ccc(C(F)(F)F)cc2)c(C(=O)N(C)C)c1 [Compound 1-42, 4-[4-(3-dimethylcarbamoyl-4-{[6-methyl-2-(4-trifluoromethylphenyl)pyridine-3-carbonyl]amino}phenyl)butyryloxy]-3-ethyl-5-fluorobenzoic acid methyl ester]
IC50: < 10 nM

COC(=O)c1ccc(OC(=O)CCCc2ccc(NC(=O)c3ccc(C)nc3-c3ccc(C(F)(F)F)cc3)c(C(=O)N(C)C)c2)cn1 [Compound 1-32, 5-[4-(3-dimethylcarbamoyl-4-{[6-methyl-2-(4-trifluoromethylphenyl)pyridine-3-carbonyl]amino}phenyl)butyryloxy]pyridine-2-carboxylic acid methyl ester]
IC50: 100 to 1000 nM

CCCOC(=O)c1ccc(OC(=O)CCCc2ccc(NC(=O)c3ccccc3-c3ccc(C(F)(F)F)cc3)c(C(=O)N(C)C)c2)cc1 [Compound 1-8, 4-(4-{3-dimethylcarbamoyl-4-[(4′-trifluoromethylbiphenyl-2-carbonyl)amino]phenyl}butyryloxy) benzoic acid propyl ester]
IC50: < 10 nM

COc1cccc(COC(=O)c2ccc(OC(=O)CCCc3ccc(NC(=O)c4ccccc4-c4ccc(C(F)(F)F)cc4)c(C(=O)N(C)C)c3)cc2)c1 [Compound 1-97, 4-[4-(3-dimethylcarbamoyl-4-{(4′-trifluoromethylbiphenyl-2-carbonyl)amino}phenyl)butyryloxy]benzoic acid 3-methoxybenzyl ester]
IC50: < 10 nM

COC(=O)c1cc(C)c(OC(=O)CCCc2ccc(NC(=O)c3ccccc3-c3ccc(C(F)(F)F)cc3)c(C(=O)N(C)C)c2)c(Cl)c1 [Compound 1-34, 3-chloro-4-(4-{3-dimethylcarbamoyl-4-[(4′-trifluoromethylbiphenyl-2-carbonyl)amino]phenyl}butyryloxy)-5-methylbenzoic acid methyl ester]
IC50: < 10 nM

CN(C)C(=O)c1cc(CCCC(=O)Oc2ccc(C(=O)OCc3ccccc3)cc2)ccc1NC(=O)c1ccccc1-c1ccc(C(F)(F)F)cc1 [Compound 1-24, 4-(4-{3-dimethylcarbamoyl-4-[(4′-trifluoromethylbiphenyl-2-carbonyl)amino]phenyl}butyryloxy)benzoic acid benzyl ester]
IC50: < 10 nM

CCc1cc(C(=O)OC)cc(C(=O)OC)c1OC(=O)CCCc1ccc(NC(=O)c2ccc(C)nc2-c2ccc(C(F)(F)F)cc2)c(C(=O)N(C)C)c1 [Compound 1-51, 4-[4-(3-dimethylcarbamoyl-4-{[6-methyl-2-(4-trifluoromethylphenyl)pyridine-3-carbonyl]amino}phenyl)butyryloxy]-5-ethylisophthalic acid dimethyl ester]
IC50: < 10 nM

COC(=O)c1cc(C(=O)OC(C)C)ccc1OC(=O)CCCc1ccc(NC(=O)c2ccc(C)nc2-c2ccc(C(F)(F)F)cc2)c(C(=O)N(C)C)c1 [Compound 1-72, 4-[4-(3-dimethylcarbamoyl-4-{[6-methyl-2-(4-trifluoromethylphenyl)pyridine-3-carbonyl]amino}phenyl)butyryloxy]isophthalic acid 1-isopropyl ester 3-methyl ester]
IC50: < 10 nM

CN(C)C(=O)c1cc(CCCC(=O)Oc2ccc(C(=O)OCCN3CCCC3=O)cc2)ccc1NC(=O)c1ccccc1-c1ccc(C(F)(F)F)cc1 [Compound 1-91, 4-[4-(3-dimethylcarbamoyl-4-{(4′-trifluoromethylbiphenyl-2-carbonyl)amino}phenyl)butyryloxy]benzoic acid 2-(2-oxopyrrolidin-1-yl)ethyl ester]
IC50: < 10 nM

CC(C)OC(=O)COC(=O)c1ccc(OC(=O)CCCc2ccc(NC(=O)c3ccccc3-c3ccc(C(F)(F)F)cc3)c(C(=O)N(C)C)c2)cc1 [Compound 1-102]
IC50: < 10 nM

COC(=O)c1cc(OC)c(OC(=O)CCCc2ccc(NC(=O)c3ccc(C)nc3-c3ccc(C(F)(F)F)cc3)c(C(=O)N(C)C)c2)c(C(F)(F)F)c1 [Compound 1-47, 4-[4-(3-dimethylcarbamoyl-4-{[6-methyl-2-(4-trifluoromethylphenyl)pyridine-3-carbonyl]amino}phenyl)butyryloxy]-3-methoxy-5-trifluoromethylbenzoic acid methyl ester]
IC50: < 10 nM

COC(=O)c1cc(C)c(OC(=O)CCCc2ccc(NC(=O)c3ccc(C)nc3-c3ccc(C(F)(F)F)cc3)c(C(=O)N(C)C)c2)c(F)c1 [Compound 1-41, 4-[4-(3-dimethylcarbamoyl-4-{[6-methyl-2-(4-trifluoromethylphenyl)pyridine-3-carbonyl]amino}phenyl)butyryloxy]-3-fluoro-5-methylbenzoic acid methyl ester]
IC50: < 10 nM

CN(C)C(=O)c1cc(CCCC(=O)Oc2ccc(C(=O)OCc3cccnc3)cc2)ccc1NC(=O)c1ccccc1-c1ccc(C(F)(F)F)cc1 [Compound 1-83, 4-[4-(3-dimethylcarbamoyl-4-{(4′-trifluoromethylbiphenyl-2-carbonyl)amino}phenyl)butyryloxy]benzoic acid pyridin-3-ylmethyl ester]
IC50: < 10 nM

Cc1ccc(C(=O)Nc2ccc(CCCC(=O)Oc3ccc(C(=O)OCc4ccccc4)cc3)cc2C(=O)N(C)C)c(-c2ccc(C(F)(F)F)cc2)n1 [Compound 1-80, 4-[4-(3-dimethylcarbamoyl-4-{[6-methyl-2-(4-trifluoromethylphenyl)pyridine-3-carbonyl]amino}phenyl)butyryloxy]benzoic acid benzyl ester]
IC50: < 10 nM
